The text below walks through data of patent US5391540A, “Substituted pyridine compounds” (Rohm and Haas Company, priority 1993, dated 1995).

Holding throughout (test): Pre-emergent herbicidal activity (Table A)
Type in all cases: in vivo

One experiment concerns Canada thistle. Conditions: Cirsium arvense, pre-emergence, Cath, 11.2 kg/ha, 10-14 days, read-out: herbicidal rating (% inhibition). The protocol:
(§1) The herbicidal ratings used in Tables A and B were assigned according to a scale based on the percent inhibition of each plant species. The herbicide rating symbols in Tables A and B are defined as follows: […]
(§2) One set of pre-emergent tests was conducted as follows:
(§3) Topsoil was placed in a pan and compacted to a depth of 0.95 to 1.27 cm. from the top of the pan. A predetermined number of seeds of each of several monocotyledonous and dicotyledonous annual plant species and/or vegetative propagules of various perennial plant species were placed on top of the soil. The soil required to level fill a pan after seeding or adding vegetative propagules was weighed into another pan. A known amount of the test compound dissolved or suspended in an organic solvent or water and applied in acetone or water as a carrier was thoroughly mixed with this cover soil, and the herbicide/soil mixture was used as a cover layer for the previously prepared pan.
(§4) The plant species usually regarded as weeds which were utilized in one set of pre-emergent activity tests, the data for which are shown in Table A, are identified by letter headings printed diagonally above the columns according to the following legend: […]

The next experiment concerns Downy Brome. The conditions noted are these: Bromus tectorum, pre-emergence, Dobr, 11.2 kg/ha, 10-14 days, read-out: herbicidal rating (% inhibition). The protocol:
as §1, §2, §3, §4

For a further experiment, the system named is Velvetleaf. Conditions: Abutilon theophrasti, pre-emergence, Vele, 11.2 kg/ha, 10-14 days, read-out: herbicidal rating (% inhibition). The protocol:
as §1, §2, §3, §4

For a further experiment, the system named is Cocklebur. Conditions: Xanthium strumarium, pre-emergence, Cobu, 11.2 kg/ha, 10-14 days, read-out: herbicidal rating (% inhibition). On the procedure: as §1, §2, §3, §4
A further experiment concerns Barnyardgrass. The conditions noted are these: Echinochloa crus-galli, pre-emergence, Bygr, 11.2 kg/ha, 10-14 days, read-out: herbicidal rating (% inhibition). The protocol:
as §1, §2, §3, §4

The next experiment deals with Quackgrass. Conditions: pre-emergence, Rhqg, 11.2 kg/ha, 10-14 days, read-out: herbicidal rating (% inhibition). The protocol:
as §1, §2, §3, §4

A further experiment deals with Yellow Nutsedge. Conditions: Cyperus, pre-emergence, Yens, 11.2 kg/ha, 10-14 days, read-out: herbicidal rating (% inhibition). The protocol: as §1, §2, §3, §4
The next experiment has as its system Rhizome Johnsongrass. Conditions: Sorghum halepense, pre-emergence, Rhjg, 11.2 kg/ha, 10-14 days, read-out: herbicidal rating (% inhibition). The protocol: as §1, §2, §3, §4
A further experiment relates to Common Lambsquarters. Conditions: Chenopodium album, pre-emergence, Colq, 11.2 kg/ha, 10-14 days, read-out: herbicidal rating (% inhibition). The protocol: as §1, §2, §3, §4
The next experiment relates to Morningglory. The conditions noted are these: Ipomoea, pre-emergence, Mogl, 11.2 kg/ha, 10-14 days, read-out: herbicidal rating (% inhibition). The protocol:
as §1, §2, §3, §4

In a further experiment the test system is Pennsylvania Smartweed. Conditions: pre-emergence, Pesw, 11.2 kg/ha, 10-14 days, read-out: herbicidal rating (% inhibition). On the procedure: as §1, §2, §3, §4

Structures are written as SMILES.

Turning to `COC(=O)c1c(OC)nc(C(F)(F)F)c(C(=O)OC)c1CC(=O)O` [Compound 13, 3,5-pyridinedicarboxylic acid, 4-(carboxymethyl)-2-methoxy-6-(trifluoromethyl)-, dimethyl ester], the inhibition at 11200 g/ha in the experiment on Canada thistle, in the experiment on Downy Brome, with Velvetleaf, in the experiment with Cocklebur, with Barnyardgrass and in the experiment with Quackgrass was 0 to 24% throughout. In addition, the inhibition at 11200 g/ha with Yellow Nutsedge, with Rhizome Johnsongrass, in the experiment on Common Lambsquarters and with Morningglory was 0 to 24% each time.

As to `COC(=O)c1c(OC)nc(C(F)(F)F)c(C(=O)OC)c1CBr` [Compound 87, 3,5-pyridinedicarboxylic acid, 4-(bromomethyl)-2-methoxy-6-(trifluoromethyl)-, dimethyl ester], the inhibition at 11200 g/ha with Canada thistle, in the experiment on Downy Brome, in the experiment on Velvetleaf, in the experiment on Cocklebur, in the experiment on Barnyardgrass and with Quackgrass was 0 to 24% throughout. Further, the inhibition at 11200 g/ha lay within 0 to 24% in the experiment with Yellow Nutsedge, 0 to 24% in the experiment on Rhizome Johnsongrass, 50 to 74% in the experiment on Common Lambsquarters and 0 to 24% in the experiment on Morningglory.

As to `COCc1c(C(=O)OC)c(OC)nc(C(F)(F)F)c1C(=O)OC` [Compound 88, 3,5-pyridinedicarboxylic acid, 2-methoxy-4-(methoxymethyl)-6-(trifluoromethyl)-, dimethyl ester], the inhibition at 11200 g/ha was 0 to 24% in the experiment with Canada thistle; 25 to 49% in the experiment on Downy Brome; 25 to 49% in the experiment with Velvetleaf; 0 to 24% in the experiment with Cocklebur; 75 to 100% in the experiment on Barnyardgrass; 0 to 24% with Quackgrass. The inhibition at 11200 g/ha lay within 0 to 24% in the experiment with Yellow Nutsedge, 0 to 24% with Rhizome Johnsongrass, 50 to 74% in the experiment with Common Lambsquarters and 25 to 49% in the experiment on Morningglory.

As to `COC(=O)c1c(OCC#N)nc(C(F)(F)F)c(C(=O)OC)c1CC(C)C` [Compound 80, 3,5-pyridinedicarboxylic acid, 2-(cyanomethoxy)-4-(2-methylpropyl)-6-(trifluoromethyl)-, dimethyl ester], the inhibition at 11200 g/ha was in the range of 75 to 100% with Canada thistle; 75 to 100% in the experiment on Downy Brome; 75 to 100% in the experiment with Velvetleaf; 25 to 49% in the experiment with Cocklebur; 75 to 100% in the experiment on Barnyardgrass; 25 to 49% in the experiment with Quackgrass. For the same molecule, the inhibition at 11200 g/ha in the experiment with Yellow Nutsedge is 50 to 74%; in the experiment on Common Lambsquarters, 75 to 100%; with Morningglory, 75 to 100%; in the experiment on Pennsylvania Smartweed it was 75 to 100%.

With `COC(=O)c1c(OC)nc(C(F)(F)F)c(C(=O)Cl)c1CC(C)C` [Compound 84, 3-pyridinecarboxylic acid, 5-(chlorocarbonyl)-2-methoxy-4-(2-methylpropyl)-6-(trifluoromethyl)-, methyl ester], the inhibition at 11200 g/ha lay within 75 to 100% with Canada thistle; 75 to 100% with Downy Brome; 0 to 24% in the experiment on Velvetleaf; 0 to 24% in the experiment on Cocklebur; 75 to 100% with Barnyardgrass; 0 to 24% in the experiment on Quackgrass. For the same molecule, the inhibition at 11200 g/ha in the experiment on Yellow Nutsedge is 0 to 24%; in the experiment with Rhizome Johnsongrass it was 0 to 24%; in the experiment on Common Lambsquarters, 75 to 100%; in the experiment on Morningglory it was 25 to 49%.

Regarding `CCCOc1nc(C(F)(F)F)c(C(=O)OC)c(CC(C)C)c1C(=O)OCC` [Compound 7, 3,5-pyridinedicarboxylic acid, 4-(2-methylpropyl)-2-propyloxy-6-(trifluoromethyl)-,3-ethyl 5-methyl ester], the inhibition at 11200 g/ha in the experiment with Canada thistle fell in the range of 0 to 24%; in the experiment on Velvetleaf, 0 to 24%; in the experiment on Cocklebur, 0 to 24%; in the experiment with Barnyardgrass, 75 to 100%; in the experiment with Quackgrass it was 0 to 24%; with Yellow Nutsedge it was 0 to 24%. Further, the inhibition at 11200 g/ha in the experiment with Rhizome Johnsongrass lay in the range of 0 to 24%; with Common Lambsquarters it was 75 to 100%; with Morningglory, 0 to 24%; with Pennsylvania Smartweed it was 25 to 49%.

For the molecule `COC(=O)c1c(C(F)(F)F)nc(OC)c(N)c1CC(C)C` [Compound 32, 3-pyridinecarboxylic acid, 5-amino-6-methoxy-4-(2-methylpropyl)-2-(trifluoromethyl)-, methyl ester], the inhibition at 11200 g/ha with Canada thistle was 0 to 24%; in the experiment on Downy Brome, 0 to 24%; in the experiment with Velvetleaf, 0 to 24%; with Cocklebur, 0 to 24%; in the experiment on Barnyardgrass, 75 to 100%; in the experiment on Quackgrass it was 0 to 24%. Besides, the inhibition at 11200 g/ha is 0 to 24% in the experiment with Yellow Nutsedge, 75 to 100% in the experiment on Common Lambsquarters, 0 to 24% in the experiment on Morningglory and 50 to 74% with Pennsylvania Smartweed.

Regarding `CCOc1nc(C(F)(F)F)c(C(=O)OC)c(CC(C)C)c1C(=O)SC` [Compound 8, 3-pyridinecarboxylic acid, 6-ethoxy-4-(2-methylpropyl)-5-[(methylthio)carbonyl]-2-(trifluoromethyl)-, methyl ester], the inhibition at 11200 g/ha lay within 0 to 24% in the experiment on Canada thistle; 75 to 100% in the experiment on Velvetleaf; 0 to 24% in the experiment with Cocklebur; 75 to 100% in the experiment with Barnyardgrass; 75 to 100% with Quackgrass; 0 to 24% in the experiment on Yellow Nutsedge. For the same molecule, the inhibition at 11200 g/ha lay within 0 to 24% in the experiment with Rhizome Johnsongrass, 75 to 100% in the experiment on Common Lambsquarters, 75 to 100% in the experiment on Morningglory and 75 to 100% with Pennsylvania Smartweed.

`COC(=O)c1c(OC)nc(C(F)(F)F)c(C(=O)OCCF)c1CC(C)C` [Compound 81, 3,5-pyridinedicarboxylic acid, 2-methoxy-4-(2-methylpropyl)-6-(trifluoromethyl)-, 5-(2-fluoroethyl) 3-methyl ester]: the inhibition at 11200 g/ha with Canada thistle, with Downy Brome, in the experiment with Velvetleaf, in the experiment with Cocklebur, with Barnyardgrass and in the experiment on Quackgrass was 75 to 100% each time. The inhibition at 11200 g/ha in the experiment on Yellow Nutsedge, in the experiment on Common Lambsquarters, in the experiment with Morningglory and with Pennsylvania Smartweed was 75 to 100% throughout.

For the molecule `COC(=O)c1c(OC)nc(C(F)(F)F)c(C=O)c1CC(C)C` [Compound 79, 3-pyridinecarboxylic acid, 5-formy1-2-methoxy-4-(2-methylpropyl)-6-(trifluoromethyl)-, methyl ester], the inhibition at 11200 g/ha in the experiment with Canada thistle lay in the range of 75 to 100%; with Downy Brome, 75 to 100%; in the experiment with Velvetleaf, 50 to 74%; in the experiment with Cocklebur, 0 to 24%; in the experiment on Barnyardgrass, 75 to 100%; in the experiment with Quackgrass, 75 to 100%. The inhibition at 11200 g/ha lay within 0 to 24% in the experiment on Yellow Nutsedge, 75 to 100% in the experiment with Common Lambsquarters, 50 to 74% in the experiment with Morningglory and 75 to 100% in the experiment with Pennsylvania Smartweed.

Turning to `C#CCOC(=O)c1c(C(F)(F)F)nc(OC)c(C(=O)OC)c1CC(C)C` [Compound 82, 3,5-pyridinedicarboxylic acid, 2-methoxy-4-(2-methylpropyl)-6-(trifluoromethyl)-, 3-methyl 5-(2-propynyl)ester], the inhibition at 11200 g/ha fell in the range of 75 to 100% in the experiment on Canada thistle; 75 to 100% in the experiment with Downy Brome; 75 to 100% in the experiment on Velvetleaf; 50 to 74% with Cocklebur; 75 to 100% in the experiment on Barnyardgrass; 50 to 74% in the experiment on Quackgrass. Moreover, the inhibition at 11200 g/ha in the experiment with Yellow Nutsedge is 25 to 49%; in the experiment with Common Lambsquarters, 75 to 100%; in the experiment with Morningglory it was 75 to 100%; in the experiment on Pennsylvania Smartweed, 75 to 100%.
